The values below come from patent publication US20220402925A1, “COMPOUNDS AND METHODS FOR THE TREATMENT OF CYSTIC FIBROSIS” (Flatley Discovery Lab, LLC, priority 2019, published 2022).

The test deals with T1, F508del CFTR (Homo sapiens, UniProt P13569, DEL508-508).
T1 construct: Primary CF airway epithelial cells were obtained from the UNC Cystic Fibrosis Tissue Procurement and Cell Culture Core; host or cells: primary CF airway epithelial cells
T1 sequence (P13569 with tags, fused parts or gaps DEL508-508): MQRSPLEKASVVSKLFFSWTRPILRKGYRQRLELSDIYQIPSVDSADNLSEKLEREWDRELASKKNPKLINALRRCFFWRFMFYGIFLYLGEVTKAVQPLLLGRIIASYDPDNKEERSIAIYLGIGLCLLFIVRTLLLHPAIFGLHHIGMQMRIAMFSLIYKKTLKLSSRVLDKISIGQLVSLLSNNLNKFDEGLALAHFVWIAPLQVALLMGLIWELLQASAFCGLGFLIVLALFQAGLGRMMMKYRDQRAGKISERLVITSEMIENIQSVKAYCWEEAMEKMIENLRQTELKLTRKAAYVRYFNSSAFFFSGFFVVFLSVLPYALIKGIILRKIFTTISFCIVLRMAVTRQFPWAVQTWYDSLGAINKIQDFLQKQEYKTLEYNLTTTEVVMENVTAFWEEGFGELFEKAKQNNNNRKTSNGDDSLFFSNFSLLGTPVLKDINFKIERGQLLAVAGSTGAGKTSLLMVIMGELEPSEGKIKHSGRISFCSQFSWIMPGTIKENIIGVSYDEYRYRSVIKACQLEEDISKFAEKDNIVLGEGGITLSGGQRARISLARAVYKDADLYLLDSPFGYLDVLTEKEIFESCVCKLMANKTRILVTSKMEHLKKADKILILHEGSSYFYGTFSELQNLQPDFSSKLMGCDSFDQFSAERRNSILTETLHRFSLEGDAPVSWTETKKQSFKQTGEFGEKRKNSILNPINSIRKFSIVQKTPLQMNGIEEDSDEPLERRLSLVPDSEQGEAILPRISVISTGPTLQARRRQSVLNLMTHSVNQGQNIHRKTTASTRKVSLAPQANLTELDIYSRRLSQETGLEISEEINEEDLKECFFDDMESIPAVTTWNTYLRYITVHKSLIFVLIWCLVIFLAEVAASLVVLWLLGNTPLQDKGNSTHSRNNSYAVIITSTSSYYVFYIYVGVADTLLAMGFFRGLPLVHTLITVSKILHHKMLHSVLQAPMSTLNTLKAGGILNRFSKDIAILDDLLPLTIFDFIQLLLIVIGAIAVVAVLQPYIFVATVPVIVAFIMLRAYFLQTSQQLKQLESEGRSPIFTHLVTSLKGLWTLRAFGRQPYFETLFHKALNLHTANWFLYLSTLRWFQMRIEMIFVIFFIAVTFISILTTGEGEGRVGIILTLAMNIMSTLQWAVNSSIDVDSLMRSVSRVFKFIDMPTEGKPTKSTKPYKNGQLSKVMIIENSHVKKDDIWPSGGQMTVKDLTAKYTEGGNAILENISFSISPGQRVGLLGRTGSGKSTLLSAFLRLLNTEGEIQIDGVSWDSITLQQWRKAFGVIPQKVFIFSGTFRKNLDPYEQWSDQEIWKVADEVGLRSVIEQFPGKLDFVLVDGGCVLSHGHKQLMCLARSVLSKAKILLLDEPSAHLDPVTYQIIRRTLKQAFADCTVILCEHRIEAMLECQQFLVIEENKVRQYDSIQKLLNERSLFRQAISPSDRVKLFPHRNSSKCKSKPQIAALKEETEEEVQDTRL
As to the kind of experiment: Equivalent current assay in primary CF airway epithelial cells (Corrector Activity, NAUC normalized to 3 μM VX809). To be noted: NAUC as % of positive control (VX-809). Type of test: cell-based. The method, boiled down:
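Readout is NAUC: current area from forskolin/potentiator addition until CFTR-172, minus vehicle, relative to 3 μM VX809 (=1.0). Cells were primary CF epithelia at air-liquid interface ≥4 weeks, given basolateral compound for 24 h at 37° C; median of n≥4 replicates, sigmoid fit with nH fixed at 1.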
In the case of `Cn1c2ccccc2c2cc(-c3nn(CC(=O)N(c4ccc5c(c4)OC(F)(F)O5)C4CC4)c(=O)c4nc[nH]c34)ccc21` [Example 425], the “Corr Activity (NAUC)” value is on record as “+ (NAUC<40% of positive control)”.
The value for `CCN(C(=O)Cn1nc(-c2cc(F)cc(Cl)c2)c2occc2c1=O)c1ccc2c(c1)OC(F)(F)O2` [Example 176] was “+++ (NAUC>70% of positive control)”.
Regarding `Cc1cc2c(cc1N(C)C(=O)Cn1nc(-c3cc(F)cc(C#N)c3)c3occ(C(F)(F)F)c3c1=O)OC(F)(F)O2` [Example 178], the “Corr Activity (NAUC)” value is given as “+ (NAUC<40% of positive control)”.
With `CCN(C(=O)Cn1nc(-c2cc(F)cc(C#N)c2)c2oc(C3CC3)cc2c1=O)c1ccc2c(c1)OC(F)(F)O2` [Example 225], the “Corr Activity (NAUC)” value is “+++ (NAUC>70% of positive control)”.
The value for `CCN(C(=O)Cn1nc(-c2cc(F)cc(C#N)c2)c2occc2c1=O)c1ccc2c(c1C)OC(F)(F)O2` [Example 173] was “+++ (NAUC>70% of positive control)”; that for `CCN(C(=O)Cn1nc(-c2cc(F)cc(Cl)c2)c2oc(C)cc2c1=O)c1ccc2c(c1)OC(F)(F)O2` [Example 75] was “+++ (NAUC>70% of positive control)”.
On to `CCN(C(=O)Cn1nc(-c2cccc(C#N)c2)c2oc(Cl)cc2c1=O)c1ccc2c(c1)OC(F)(F)O2` [Example 63], for which the “Corr Activity (NAUC)” value is recorded as “++ (NAUC 70-40% of positive control)”.
The value for `COc1cc(C#N)cc(-c2nn(CC(=O)N3CCCc4c3ccc3c4OC(F)(F)O3)c(=O)c3ccoc23)c1` [Example 105] was “+++ (NAUC>70% of positive control)”; that for `CN(C(=O)Cn1nc(-c2cccc(Cl)c2)c2oc(C(F)F)cc2c1=O)c1ccc2c(c1)OC(F)(F)O2` [Example 185] was “+++ (NAUC>70% of positive control)”.
As for `CCN(C(=O)Cn1nc(-c2cccc(C#N)c2)c2cn[nH]c2c1=O)c1ccc2c(c1)OC(F)(F)O2` [Example 493, 2-(4-(3-cyanophenyl)-7-oxo-1,7-dihydro-6H-pyrazolo[3,4-d]pyridazin-6-yl)-N-(2,2-difluorobenzo[d][1,3]dioxol-5-yl)-N-ethylacetamide], the “Corr Activity (NAUC)” value was “++ (NAUC 70-40% of positive control)”.
Consider `Cc1cc(C#N)cc(-c2nn(CC(=O)N(C)c3ccc4c(c3)OC(F)(F)O4)c(=O)c3ccoc23)c1` [Example 86], for which the “Corr Activity (NAUC)” value is “+++ (NAUC>70% of positive control)”.
As for `CCN(C(=O)Cn1nc(-c2cc(F)cc(C#N)c2)c2oc(C(F)F)cc2c1=O)c1ccc2c(c1C)OC(F)(F)O2` [Example 195], the “Corr Activity (NAUC)” value is listed as “++ (NAUC 70-40% of positive control)”.
On to `CN(C(=O)Cn1nc(-c2cccc(C#N)c2)c2oc(C(F)F)cc2c1=O)c1ccc2c(c1)OC(F)(F)O2` [Example 180, 2-(7-(3-cyanophenyl)-2-(difluoromethyl)-4-oxofuro[2,3-d]pyridazin-5(4H)-yl)-N-(2,2-difluorobenzo[d][1,3]dioxol-5-yl)-N-methylacetamide], for which the “Corr Activity (NAUC)” value is listed as “+++ (NAUC>70% of positive control)”.
`CCN(C(=O)Cn1nc(-c2cc(F)cc(C#N)c2)c2occc2c1=O)c1ccc2c(c1)OC(F)(F)O2` [Example 177]: the “Corr Activity (NAUC)” value is given as “+++ (NAUC>70% of positive control)”.
On to `CCN(C(=O)Cn1nc(-c2ccc3c(ccn3Cc3ccccc3)c2)c2[nH]cnc2c1=O)c1ccc2c(c1)OC(F)(F)O2` [Example 296], for which the “Corr Activity (NAUC)” value was “+ (NAUC<40% of positive control)”.
Consider `O=C(Cn1nc(-c2cc(Cl)cc(C(F)(F)F)c2)c2[nH]cnc2c1=O)N(c1ccc2c(c1)OC(F)(F)O2)C1CC1` [Example 401], for which the “Corr Activity (NAUC)” value was “++ (NAUC 70-40% of positive control)”.
For `CCN(C(=O)Cn1nc(-c2cccc(OC(F)(F)F)c2)c2occc2c1=O)c1ccc2nc(C)oc2c1` [Example 94], the “Corr Activity (NAUC)” value is recorded as “++ (NAUC 70-40% of positive control)”.
`O=C(Cn1nc(-c2ccc3c(c2)ncn3-c2ccccc2)c2[nH]cnc2c1=O)N(c1ccc2c(c1)OC(F)(F)O2)C1CC1` [Example 433]: the “Corr Activity (NAUC)” value is “+ (NAUC<40% of positive control)”.
With `CCN(C(=O)Cn1nc(-c2cc(Cl)cc(C(F)(F)F)c2)c2[nH]cnc2c1=O)c1ccc2c(c1)OC(F)(F)O2` [Example 278], the “Corr Activity (NAUC)” value was “+++ (NAUC>70% of positive control)”.
The value for `CCN(C(=O)Cn1nc(-c2cccc(Cl)c2)c2[nH]ccc2c1=O)c1ccc2c(c1)OC(F)(F)O2` [Example 502] was “+++ (NAUC>70% of positive control)”; that for `CCN(C(=O)Cn1nc(-c2cc(OC)cc(C(F)(F)F)c2)c2[nH]cnc2c1=O)c1ccc2c(c1)OC(F)(F)O2` [Example 265] was “+ (NAUC<40% of positive control)”; that for `N#Cc1cc(-c2nn(CC(=O)N(c3ccc4c(c3)OC(F)(F)O4)C3CC3)c(=O)c3nc[nH]c23)ccc1OC(F)(F)F` [Example 483] was “++ (NAUC 70-40% of positive control)”.
Regarding `Cc1c(N(C)C(=O)Cn2nc(-c3cccc(C#N)c3)c3occc3c2=O)ccc2c1OC(F)(F)O2` [Example 53], the “Corr Activity (NAUC)” value is on record as “+++ (NAUC>70% of positive control)”.
For `COc1ccc2cc(-c3nn(CC(=O)N(c4ccc5c(c4)OC(F)(F)O5)C4CC4)c(=O)c4nc[nH]c34)ccc2c1` [Example 412], the “Corr Activity (NAUC)” value is given as “++ (NAUC 70-40% of positive control)”.
`CCN(C(=O)Cn1nc(-c2cc(C#N)cc(C(C)(C)C)c2)c2oc(C(F)F)cc2c1=O)c1ccc2c(c1)OC(F)(F)O2` [Example 188]: the “Corr Activity (NAUC)” value is given as “+++ (NAUC>70% of positive control)”.
With `CCN(C(=O)Cn1nc(-c2cc(Cl)cc(C#N)c2)c2oc(C3CC3)cc2c1=O)c1ccc2c(c1)OC(F)(F)O2` [Example 224], the “Corr Activity (NAUC)” value is reported as “+++ (NAUC>70% of positive control)”.
For the compound `CCN(C(=O)Cn1nc(-c2cc(F)cc(C#N)c2)c2oc(C(F)F)cc2c1=O)c1ccc2c(c1)OC(F)(F)O2` [Example 191], the “Corr Activity (NAUC)” value is reported as “+++ (NAUC>70% of positive control)”.
Consider `O=C(Cn1nc(-c2cc(C(F)(F)F)cc(C(F)(F)F)c2)c2[nH]cnc2c1=O)N(c1ccc2c(c1)OC(F)(F)O2)C1CC1` [Example 382], for which the “Corr Activity (NAUC)” value is “+ (NAUC<40% of positive control)”.
On to `CCN(C(=O)Cn1nc(-c2cc(F)cc(Cl)c2)c2oc(C3CCC3)cc2c1=O)c1ccc2c(c1)OC(F)(F)O2` [Example 236], for which the “Corr Activity (NAUC)” value is given as “+++ (NAUC>70% of positive control)”.
Regarding `CCN(C(=O)Cn1nc(-c2cccc(Cl)c2)c2cn[nH]c2c1=O)c1ccc2c(c1)OC(F)(F)O2` [Example 496], the “Corr Activity (NAUC)” value is “++ (NAUC 70-40% of positive control)”.
For `CCN(C(=O)Cn1nc(-c2cc(F)cc(C#N)c2)c2oc(C)cc2c1=O)c1ccc2c(c1)OC(F)(F)O2` [Example 76], the “Corr Activity (NAUC)” value is “+++ (NAUC>70% of positive control)”.
In the case of `N#Cc1cc(-c2nn(CC(=O)N(c3ccc4c(c3)OC(F)(F)O4)C3CC3)c(=O)c3nc[nH]c23)ccc1N1CCC(F)(F)C1` [Example 489], the “Corr Activity (NAUC)” value is on record as “+++ (NAUC>70% of positive control)”.
The value for `CCN(C(=O)Cn1nc(-c2ccc(Cl)c(C#N)c2)c2[nH]cnc2c1=O)c1ccc2c(c1)OC(F)(F)O2` [Example 325] was “+++ (NAUC>70% of positive control)”; that for `Cc1cc(C#N)cc(-c2nn(CC(=O)N(C)c3ccc4c(c3)OC(F)(F)O4)c(=O)c3nc[nH]c23)c1` [Example 247] was “+++ (NAUC>70% of positive control)”.
Regarding `CN(C(=O)Cn1nc(-c2cc(Cl)cc(Cl)c2)c2occc2c1=O)c1ccc2c(c1)OC(F)(F)O2` [Example 42], the “Corr Activity (NAUC)” value is recorded as “+++ (NAUC>70% of positive control)”.
For the compound `CN(C(=O)Cn1nc(-c2cccc(OC(C)(C)C)c2)c2oc(C(=O)NC(C)(C)C)cc2c1=O)c1ccc2c(c1)OC(F)(F)O2` [Example 123], the “Corr Activity (NAUC)” value is “+ (NAUC<40% of positive control)”.
As to `Cc1nc2ccc(N(C)C(=O)Cn3nc(-c4cccc(F)c4)c4sc(C)nc4c3=O)cc2o1` [Example 19], the “Corr Activity (NAUC)” value is “+++ (NAUC>70% of positive control)”.
As for `N#Cc1cccc(-c2nn(CC(=O)N3CC4(CC4)c4c3ccc3c4OC(F)(F)O3)c(=O)c3ccoc23)c1` [Example 58], the “Corr Activity (NAUC)” value is “+ (NAUC<40% of positive control)”.
`CCN(C(=O)Cn1nc(-c2ccc3cc(OC)ccc3c2)c2[nH]cnc2c1=O)c1ccc2c(c1)OC(F)(F)O2` [Example 289]: the “Corr Activity (NAUC)” value is “+++ (NAUC>70% of positive control)”.
As to `CCN(C(=O)Cn1nc(-c2cccc(Cl)c2)c2sccc2c1=O)c1ccc2nc(C)oc2c1` [Example 4], the “Corr Activity (NAUC)” value is given as “+++ (NAUC>70% of positive control)”.
The value for `CN(C(=O)Cn1nc(-c2cccc(F)c2)c2sccc2c1=O)c1ccc2c(c1)CCC2` [Example 3] was “+++ (NAUC>70% of positive control)”; that for `Cc1cc2c(=O)n(CC(=O)N(c3ccc4c(c3)OC(F)(F)O4)C3CC3)nc(-c3cc(F)cc(F)c3)c2o1` [Example 78] was “+++ (NAUC>70% of positive control)”.
For the compound `CCN(C(=O)Cn1nc(-c2cc(C#N)cc(OC)c2)c2[nH]cnc2c1=O)c1ccc2c(c1)OC(F)(F)O2` [Example 286], the “Corr Activity (NAUC)” value is given as “+++ (NAUC>70% of positive control)”.
The value for `CCN(C(=O)Cn1nc(-c2ccc(O)c(Cl)c2)c2[nH]cnc2c1=O)c1ccc2c(c1)OC(F)(F)O2` [Example 327] was “+ (NAUC<40% of positive control)”; that for `CCN(C(=O)Cn1nc(-c2cccc(C#N)c2)c2occc2c1=O)c1ccc2c(c1C)OC(F)(F)O2` [Example 54] was “+++ (NAUC>70% of positive control)”; that for `CCN(C(=O)Cn1nc(-c2cc(C)cc(C#N)c2)c2oc(C(=O)NC(C)(C)C)cc2c1=O)c1cc2c(cc1C)OC(F)(F)O2` [Example 133] was “+++ (NAUC>70% of positive control)”.
On to `CCN(C(=O)Cn1nc(-c2cccc(Cl)c2)c2oc(C3CC3)cc2c1=O)c1ccc2c(c1)OC(F)(F)O2` [Example 230], for which the “Corr Activity (NAUC)” value is reported as “+++ (NAUC>70% of positive control)”.
